The values that follow come from publication PMC12583827, “Harnessing microbial-derived metabolites in the urinary tract to prevent infection induced catheter encrustation” (Nature Communications, 2025).

Data set [1] deals with P. mirabilis urease operon (ureABC, ureEDF). Briefly: Real-time quantitative PCR of urease operon. The data set is classed as cell-based, Proteus mirabilis. On the procedure: P. mirabilis was cultured for ~18 h in LB broth and then sub cultured until it reached mid-log growth phase (OD600 0.2-0.5). Cultures were spun down to pellet at 10,000 rcf for 10 minutes and resuspended in saline to a final OD600 of 1.0. Cultures were then diluted 1:10 into dampening metabolites buffered 1:10 in potassium phosphate buffer pH7 and supplemented with 500 mM urea. P. mirabilis in potassium phosphate buffer without urea served as a negative control. Cultures were incubated in potassium phosphate buffer with and without dampening metabolites at 37 °C with shaking for 15 minutes. RNA isolation, cDNA synthesis and RT qPCR were performed as described previously. […] A RNA integrity analysis using agarose gel electrophoresis on extracted RNA was performed for all samples to confirm no change in transcript stability (Supplementary Fig 16A). The data were analyzed according to the Relative Quantification (RQ) method by Pfaffl et al. 2001[54] (See Supplementary Information).
168 Real-time quantitative PCR analysis. The data were analyzed according to the Relative
169 Quantification (RQ) method by Pfaffl et al 2001 (56) in which P. mirabilis potassium phosphate
170 buffer without urea was considered as the ‘Control’ and P. mirabilis in potassium phosphate
171 buffer supplemented with 500mM urea with and without candidate dampening compounds were
172 the ‘Sample.’ The full equation is below.
(E )ΔCPtarget (control−sample)
174 Relative Quantification Ratio = target Equation 2
(Ereference)ΔCPreference (control−sample)
176 In this equation, E refers to the primer efficiency of the target gene (Etarget, urease operon
177 subunits) or the reference gene (Ereference, rpoA), and CP refers to the Cycle Point, or the cycle
178 number at which the signal exceeds the threshold. […]
183 for whole genome sequencing on the Illumina NextSeq2000 platform. Read trimming, and run
184 analytics were performed using Trimmomatic v0.39.0 (62). The processed reads were assembled
185 using spades v3.15.5 (63) wrapped in Unicycler v0.5.0 (64, 65). Read mapping was done using […]

For the next data set, the system named is M. morganii urease. Briefly: Urease activity assay, whole cell M. morganii TA43. The data set is classed as cell-based, Morganella morganii.
Another data set relates to P. stuartii urease. Kind of data set: Urease activity assay, whole cell P. stuartii BE2467. The data set is classed as cell-based, Providencia stuartii.
The next data set deals with UTI MRSA urease. Briefly: UTI MRSA urease activity assay. The data set is classed as cell-based, Staphylococcus aureus. As to conditions: whole cell, urease broth. On the procedure:
190 Omega and visualization was carried out using ESPript 3.0 (69), enabling comparison across
191 different clinical isolates. Urease genes, including the full operon from ureA to ureR, were
192 identified and extracted from the prokka annotated genomes. The extracted protein sequences
193 were subjected to sequence alignment using Clustal Omega and visualization was carried out
194 using ESPript 3.0 [8], enabling comparison across different clinical isolates.
195 UTI MRSA urease activity assay. The UTI MRSA urease assay was adapted from a recently-
196 published semi quantitative assay to measure urease activity in bacterial species with low overall
197 activity under standard conditions (50). Dampening metabolites were directly dissolved in urease
198 broth (1 g tryptone (RPI; CAS No. 91079-40-2), 1 g D(+)-glucose (RPI; CAS No. 50-99-7), 2 g
199 potassium phosphate monobasic anhydrous (VWR; Lot: 20C1356567), 5 g sodium chloride
201 of MilliQ water, pH 5.5, sterilized via autoclaving). UTI MRSA strains from overnight cultures
202 were harvested by centrifugation for 5 minutes at 10,000 g, washed with 1 volume of 1X
203 Phosphate Buffered Saline (PBS), and resuspended in urease broth. Bacterial cultures were […]
205 measured at 415 nm, 560 nm, and 600 nm every 20 mins for 24 hours, shaking at 37°C using a
206 BioTek Synergy|H1 microtiter plate reader. Urease activity was calculated by dividing the OD […]

Another data set has as its system M. morganii TA43. Briefly: Growth and viability of M. morganii in dampening metabolites. The data set is classed as cell-based, Morganella morganii. On the procedure:
478 Supplementary Figure 20. Growth of M. morganii, P. stuartii and UTI MRSA incubated in
479 dampening metabolites. M. morganii TA43 (A,D,G), P. stuartii BE2467(B,E,H), UTI MRSA
480 (C,F,I) were incubated in urease dampening metabolites to assess impact on growth. Bacteria
481 were cultured for ~18 hours in LB (Mm and Ps) or BHI (MRSA) broth, then diluted 1:100 into
482 fresh broth with (A-C) the highest concentrations of dampening metabolites assessed for urease
483 inhibition or (D-F) serial dilutions of D-imidazole lactate. Bacterial suspensions were incubated
484 at 37 °C with double-orbital shaking, and OD600 was measured every 15 minutes for 18 hours.
485 Error bars represent mean ± standard deviation (SD) from at least 3 technical replicates, and
486 graphs are representative of 3 independent biologic experiments. (G-I) Viability of incubated in
487 Mm, Ps or MRSA incubated in serial dilutions of D-imidazole lactate. Overnight cultures were
(1 picture or pasted object on this page, not shown here)
488 subcultured to mid log phase, washed in potassium phosphate buffer, and diluted 1:10 in
489 potassium phosphate buffer with and without D-imidazole lactate. Samples (n=3) were incubated
490 at 37°C with aeration for one hour then plated and enumerated for colony forming units (CFU).

Data set [2] is described as follows: Buffering capacity assay (NaOH titration, phenol red). The data set is classed as physicochemical. As to conditions: high concentrations of metabolite in potassium phosphate buffer with phenol red. On the procedure: Known concentrations of sodium hydroxide were added to each well of a 96 well plate in combination with candidate dampening metabolite of interest buffered 1:10 in potassium phosphate buffer pH7. 0.01% phenol red was added to each well, and absorbance (OD562) was measured in a Synergy H1 plate reader (BioTek).

Details of data set [3]: method as in PMID 9792207. As to conditions: administered into the lateral ventricle; cited from earlier work.
Data set [4] concerns isolated guinea pig bladders. To be noted: cited from earlier work.

Structures can show the parent of a compound that is named as a salt.

Procedure for M. morganii urease: (§1) Urease activity was measured as described previously in triplicate with at least three biological replicates[21]. Briefly, bacteria were cultured for ~18 h in LB broth, concentrated to an OD600 of 4, washed once in saline, and diluted (1:10 for P. mirabilis and 1:50 for P. stuartii and M. morganii) into candidate dampening metabolites in potassium phosphate buffer or human urine pH7 and supplemented with 500 mM urea and 0.01% phenol red. Bacterial suspensions were distributed into a 96-well plate, incubated at 37 °C with double-orbital shaking in a Synergy H1 plate reader (BioTek), and absorbance (OD562) was measured every 60 seconds for 180 minutes. Isogenic urease mutants (Supplementary Data 1) served as negative controls for P. mirabilis and P. stuartii and a vehicle control served as a negative control for M. morganii.
Procedure for P. stuartii urease: as §1

Consider `O.O=C(O)[C@H](O)Cc1cnc[nH]1` [D-imidazole lactate, D-imidazolelactic acid hydrate], for which the “relative expression of urease mRNA transcripts” value in data set [1] (15-minute incubation, 500 mM urea) is given as “decreased”. The “pool of rpoA mRNA transcripts” value in data set [1] (15 minutes incubation) is reported as “did not affect”. For the same molecule, the “urease activity in M. morganii” value in the data set on M. morganii urease is “most potent urease inhibition”. Further, the “urease activity in P. stuartii” value with P. stuartii urease is reported as “most potent urease inhibition”. Further, the “urease activity in MRSA” value in the data set with UTI MRSA urease was “least potent”. Moreover, the “growth of M. morganii” value in the data set on M. morganii TA43 (LB broth) was “perturbed growth”. For the same molecule, the “antimicrobial activity against M. morganii TA43” value with M. morganii TA43 (incubation in potassium phosphate, CFU) was “robust antimicrobial activity”.

`Cl.O=C(O)Cc1cnc[nH]1` [4-imidazole acetate, 2-(1H-Imidazol-5-yl)acetic acid hydrochloride]: the “buffering capacity: absorbance (OD562) across NaOH concentrations” value in data set [2] is given as “consistent reduction in absorbance compared to the control”. Also, the “blood pressure in cats” value in data set [3] is “dose-dependent decrease in blood pressure”.

Turning to `NCCc1c[nH]cn1` [Histamine, histamine dihydrochloride], the “response of isolated guinea pig bladders” value in data set [4] is “induce a contractile response”.
